Reference: paper PMC9871955, “High-throughput screening of SARS-CoV-2 main and papain-like protease inhibitors” (Protein & Cell, 2022)
Like-named read-outs stand apart in the source and are kept apart here.

How the values were obtained:
[1] = system: Vero cells
[2] = target: SARS-CoV-2 M^pro (Severe acute respiratory syndrome coronavirus 2, UniProt P0DTD1); experiment: biochemical
[3] = Table S2, PL^pro inhibitors, same inhibitor concentration
[4] = Table S3, representative dual inhibitors, read-out: IC50 for M^pro
[5] = read-out: IC50 / inhibitory activity against M^pro
[6] = Table S1, M^pro inhibitors, same inhibitor concentration (10 µg/mL)
[7] = Table S1, M^pro inhibitors, 40 nmol/L enzyme, 20 µmol/L substrate, read-out: IC50

Row | Compound | Cytotoxicity activity (%) [1, 3] | IC50 ([2]; IC50 (μM) at S/KM 1) | IC50 ([2]; IC50 (μM) at S/KM 1/2) | IC50 ([2]; IC50 (μM) at S/KM 2) | IC50 [2, 4] | Cytotoxicity activity (%) [1, 6] | IC50 [2, 7] | further results
1 | O=c1sc2ccccc2n1Cc1n[nH]c(=S)n1-c1ccccc1 [JK0946-F007] | -4.63% | 9.67 ± 3.64 µM | 3.56 ± 0.62 µM | 8.97 ± 2.32 µM | 8.7 ± 0.9 µM |  |  | IC50 [2, 5]: 4.2 ± 0.6 µM
2 | O=C(NCc1n[nH]c(=S)n1-c1ccc(Br)cc1)c1ccc(Cl)cc1Cl [JK0108-D008] | -8.62% | 4.37 ± 0.84 µM |  | 5.83 ± 1.68 µM |  |  |  | IC50 [2, 5]: 0.5 µM
3 | COc1ccc(-n2c(S)nnc2CNc2ccc(C)cc2)cc1 [RUS0105-C005] |  |  |  |  |  | 5.87% | 0.478 ± 0.009 µM | 
4 | O=C1NC(=O)C(=Cc2ccc(-c3cccc(Cl)c3Cl)o2)C(=O)N1 [WNN3989-H007] |  |  | 0.11 ± 0.01 µM |  |  | -4.89% | 0.552 ± 0.12 µM | 
5 | CC(C(=O)NCc1ccco1)n1c(Cc2c(Cl)cccc2Cl)nc2ccccc21 (stereo not shown) [CD3531-C011] | -14.28% |  |  |  |  |  |  | 
6 | COc1ccc(-n2c(S)nnc2CNC(=O)c2cc(OC)c(OC)c(OC)c2)cc1 [JK0109-C011] | -9.42% | 16.1 ± 3.07 µM | 2.3 ± 0.96 µM |  | 42.8 ± 1.7 µM |  |  | 
7 | COc1ccc(-n2c(CNC(=O)COc3ccc(Cl)cc3Cl)n[nH]c2=S)cc1 [JK0109-B011] | -7.31% | 1.53 ± 0.58 µM | 1.33 ± 0.26 µM |  | 21.8 ± 0.3 µM |  |  | 
8 | O=C1NC(=O)N(Cc2ccccc2)C(=O)C1=Cc1ccco1 [WNN3797-H008] |  |  | 0.67 ± 0.28 µM | 0.55 ± 0.02 µM |  | -7.75% | 0.172 µM | 
9 | CCOc1cc(C(=O)NCc2n[nH]c(=S)n2-c2ccc(Br)cc2)cc(OCC)c1OCC [JK0109-B004] | -7.5% | 1.62 ± 0.24 µM | 1.01 ± 0.25 µM | 2.17 ± 0.27 µM | 9.7 ± 0.1 µM |  |  | 
10 | O=C(Oc1cncc(Cl)c1)c1sccc1Cl [WNN2048-F004] |  | 0.35 ± 0.11 µM |  | 0.33 ± 0.07 µM |  | 6.16% | 0.131 ± 0.011 µM | cytotoxicity effect ([1]; in words): without cytotoxicity effect; dependence of apparent IC50 on substrate concentration [2]: consistent IC50 that is not affected by substrate concentration; IC50 ([2]; running text and Figure 4A, read-out: IC50 against M^pro): 0.103 ± 0.0052 µM
11 | O=C1NC(=O)C(=Cc2ccc(-c3cccc(Cl)c3)o2)C(=O)N1 [RUS0245-E010] |  | 0.25 ± 0.04 µM | 0.34 ± 0.04 µM | 0.34 ± 0.09 µM |  | -8.14% | 0.196 ± 0.009 µM | 
12 | CCC(C(=O)NCc1ccco1)n1c(Cc2c(Cl)cccc2Cl)nc2ccccc21 (stereo not shown) [CD3226-D010] | -22.39% |  |  |  |  |  |  | 
13 | O=C(COc1ccc(Cl)cc1)NCc1n[nH]c(=S)n1-c1ccc(Br)cc1 [JK0109-H005] | -4.08% |  | 1.33 ± 0.28 µM | 3.36 ± 0.47 µM | 4.2 ± 0.7 µM |  |  | IC50 (μM) at S/KM 1 [2]: 4.17 ± 1.29 µM
14 | O=C1NC(=O)C(=Cc2ccc(-c3cccc(C(F)(F)F)c3)o2)C(=O)N1 [WNN3953-B007] |  | 0.77 ± 0.14 µM |  | 0.53 ± 0.1 µM |  | 13.01% | 0.16 ± 0.009 µM | 
15 | Cc1ccc(NCc2n[nH]c(=S)n2-c2ccccc2)cc1 [WNN2867-E005] |  |  |  |  |  | -6.94% | 0.466 ± 0.101 µM | 
16 | COc1ccc(CN2C(=O)NC(=O)/C(=C\c3ccco3)C2=O)cc1 [CDE0972-G011] |  |  |  |  |  | -7.84% |  | IC50 ([2]; read-out: IC50 (μM) at S/KM 1): 2.86 ± 0.53 µM; IC50 ([2]; read-out: IC50 (μM) at S/KM 1/2): 2.17 ± 0.2 µM; IC50 ([2]; read-out: IC50 (μM) at S/KM 2): 3.5 ± 0.42 µM
